One test addresses human recombinant Top1 (Homo sapiens (Human), UniProt P11387). The experiment in a line: Topoisomerase I-mediated DNA cleavage reactions. To be noted: for Top1, compound-induced DNA cleavage due to Top1 inhibition: semiquantitative scale relative to 1 μM camptothecin (90) or MJ-III-65 (91).
Another test deals with recombinant human Tdp1 (Homo sapiens (Human), UniProt Q9NUW8). Nature of the test: Gel-based assay measuring the inhibition of recombinant Tdp1. The format is biochemical. To be noted: for IC50: determined by duplicate, read-out: Tdp1 (semiquantitative IC50 scale); for Tdp1 inhibitory activity (in words): recombinant Tdp1.

As a reminder, the IC50 is the concentration that gives 50% inhibition.

recombinant human Tdp1, sequence (Q9NUW8 whole entry): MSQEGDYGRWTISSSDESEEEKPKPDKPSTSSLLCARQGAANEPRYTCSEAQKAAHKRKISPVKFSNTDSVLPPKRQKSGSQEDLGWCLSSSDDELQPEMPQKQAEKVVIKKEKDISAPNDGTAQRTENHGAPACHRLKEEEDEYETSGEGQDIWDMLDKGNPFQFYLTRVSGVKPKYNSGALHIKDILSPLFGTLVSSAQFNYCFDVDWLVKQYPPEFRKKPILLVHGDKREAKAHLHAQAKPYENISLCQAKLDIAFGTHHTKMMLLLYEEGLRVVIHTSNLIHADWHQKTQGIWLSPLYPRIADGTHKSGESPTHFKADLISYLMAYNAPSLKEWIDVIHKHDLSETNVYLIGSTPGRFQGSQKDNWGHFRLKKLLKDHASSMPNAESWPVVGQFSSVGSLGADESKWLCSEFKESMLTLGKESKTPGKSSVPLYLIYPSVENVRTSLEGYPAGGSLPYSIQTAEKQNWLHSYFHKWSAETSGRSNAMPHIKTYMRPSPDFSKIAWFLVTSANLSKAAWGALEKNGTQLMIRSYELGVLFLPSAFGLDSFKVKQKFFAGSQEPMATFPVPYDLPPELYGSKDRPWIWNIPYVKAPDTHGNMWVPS
human recombinant Top1, sequence (P11387 whole entry): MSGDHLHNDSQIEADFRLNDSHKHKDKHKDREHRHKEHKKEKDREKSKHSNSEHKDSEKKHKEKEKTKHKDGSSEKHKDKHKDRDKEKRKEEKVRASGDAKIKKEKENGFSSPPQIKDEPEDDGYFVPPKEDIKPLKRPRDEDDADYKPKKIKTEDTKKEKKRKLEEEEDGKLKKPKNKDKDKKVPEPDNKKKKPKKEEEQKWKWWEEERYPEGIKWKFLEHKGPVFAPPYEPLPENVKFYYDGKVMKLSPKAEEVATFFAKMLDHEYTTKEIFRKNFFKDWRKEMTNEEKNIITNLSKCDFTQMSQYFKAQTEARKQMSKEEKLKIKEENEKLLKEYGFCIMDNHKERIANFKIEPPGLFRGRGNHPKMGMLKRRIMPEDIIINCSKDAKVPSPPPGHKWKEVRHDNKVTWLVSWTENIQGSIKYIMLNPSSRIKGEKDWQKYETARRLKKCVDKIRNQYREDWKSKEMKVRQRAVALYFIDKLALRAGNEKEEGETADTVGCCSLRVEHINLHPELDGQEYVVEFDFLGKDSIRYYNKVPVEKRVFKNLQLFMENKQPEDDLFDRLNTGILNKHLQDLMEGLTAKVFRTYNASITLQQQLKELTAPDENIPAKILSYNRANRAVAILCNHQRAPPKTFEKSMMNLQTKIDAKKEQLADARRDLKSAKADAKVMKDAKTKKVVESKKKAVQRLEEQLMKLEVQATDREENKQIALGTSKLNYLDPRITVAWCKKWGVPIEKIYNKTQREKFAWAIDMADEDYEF
Experimental for human recombinant Top1: Topoisomerase I-Mediated DNA Cleavage Reactions.
DNA cleavage reactions were prepared as previously reported with the exception of the DNA substrate. […] Unincorporated [^32P]dGTP was removed using mini Quick Spin DNA columns (Roche, Indianapolis, Ind.), and the eluate containing the 3′-end-labeled DNA substrate was collected. Approximately 2 nM radiolabeled DNA substrate was incubated with recombinant Top1 in 20 μL of reaction buffer [10 mM Tris-HCl (pH 7.5), 50 mM KCl, 5 mM MgCl2, 0.1 mM EDTA, and 15 μg/mL BSA] at 25° C. for 20 min in the presence of various concentrations of compounds. The reactions were terminated by adding SDS (0.5% final concentration) followed by the addition of two volumes of loading dye (80% formamide, 10 mM sodium hydroxide, 1 mM sodium EDTA, 0.1% xylene cyanol, and 0.1% bromphenol blue). Aliquots of each reaction mixture were subjected to 20% denaturing PAGE. Gels were dried and visualized by using a phosphoimager and ImageQuant software (Molecular Dynamics).
Top1 reactions were performed as recently described. […] The reactions were terminated by adding SDS (0.5% final concentration) followed by the addition of two volumes of loading dye (80% formamide, 10 mM sodium hydroxide, 1 mM sodium EDTA, 0.1% xylene cyanol, and 0.1% bromphenol blue). Reactions were subjected to 20% denaturing PAGE. Gels were dried and visualized by using a Typhoon 8600 and ImageQuant software (Molecular Dynamics).
Experimental for recombinant human Tdp1: Tdp1 inhibitory activity was measured by the drug's ability to inhibit the hydrolysis of the phosphodiester linkage between tyrosine and the 3′-end of the DNA substrate, and to prevent the generation of an oligonucleotide with a free 3′-phosphate (N14P). Therefore, the disappearance of the gel band for N14P indicated Tdp1 inhibition.
Gel-based Assay Measuring the Inhibition of Recombinant Tdp1.
A 5′-[^32P]-labeled single-stranded DNA oligonucleotide containing a 3′-phosphotyrosine (N14Y) was generated as described by Dexheimer et al. The DNA substrate was then incubated with 5 pM recombinant Tdp1 in the absence or presence of inhibitor for 15 min at room temperature in a buffer containing 50 mM Tris HCl, pH 7.5, 80 mM KCl, 2 mM EDTA, 1 mM DTT, 40 μg/ml BSA and 0.01% Tween-20. […] Gel images were scanned using a Typhoon 8600 (GE Healthcare) and densitometric analyses were performed using the ImageQuant software (GE Healthcare).

Turning to `COC(=O)C(=O)Nc1ccc2c3c(n(C)c(=O)c2c1)-c1ccccc1C3=O` [Compound 9 of (B), Methyl 2-[(6-Methyl-5,11-dioxo-6,11-dihydro-5H-indeno[1,2-c]isoquinolin-3-yl)amino]-2-oxoacetate], the “Top1, compound-induced DNA cleavage due to Top1 inhibition” value (shortened to “Top1 … to Top1 inhibition”) on human recombinant Top1 worked out at 0.
As for `COC(=O)CC(=O)Nc1ccc2c3c(n(C)c(=O)c2c1)-c1ccccc1C3=O` [Compound 10 of (B), Methyl 3-[(6-Methyl-5,11-dioxo-6,11-dihydro-5H-indeno[1,2-c]isoquinolin-3-yl)amino]-3-oxopropanoate], the “Top1 … to Top1 inhibition” value at human recombinant Top1 amounted to 0.
Still for that read-out and setting: under `COC(=O)CCC(=O)Nc1ccc2c3c(n(C)c(=O)c2c1)-c1ccccc1C3=O` [Compound 11 of (B), Methyl 4-[(6-Methyl-5,11-dioxo-6,11-dihydro-5H-indeno[1,2-c]isoquinolin-3-yl)amino]-4-oxobutanoate] stands “(+)”; under `COC(=O)CCCC(=O)Nc1ccc2c3c(n(C)c(=O)c2c1)-c1ccccc1C3=O` [Compound 12 of (B), Methyl 5-[(6-Methyl-5,11-dioxo-6,11-dihydro-5H-indeno[1,2-c]isoquinolin-3-yl)amino]-5-oxopentanoate], “+”.
Still for that read-out and setting: the figure for `COC(=O)CCCCC(=O)Nc1ccc2c3c(n(C)c(=O)c2c1)-c1ccccc1C3=O` [Compound 13 of (B), Methyl 6-[(6-Methyl-5,11-dioxo-6,11-dihydro-5H-indeno[1,2-c]isoquinolin-3-yl)amino]-6-oxohexanoate] is 0.
In the case of `COC(=O)CC(=O)Nc1ccc2c3c(n(CCCNC(=O)OC(C)(C)C)c(=O)c2c1)-c1ccccc1C3=O` [Compound 18 of (B), Methyl 3-[(6-(3-((tert-Butoxycarbonyl)amino)propyl)-5,11-dioxo-6,11-dihydro-5H-indeno[1,2-c]isoquinolin-3-yl)amino]-3-oxopropanoate], at recombinant human Tdp1, the IC50 is > 111 µM. Besides, on human recombinant Top1, the “Top1 … to Top1 inhibition” value amounted to 0.
Taken in the same sequence, the figures for `COC(=O)CCC(=O)Nc1ccc2c3c(n(CCCNC(=O)OC(C)(C)C)c(=O)c2c1)-c1ccccc1C3=O` [Compound 19 of (B), Methyl 4-[(6-(3-((tert-Butoxycarbonyl)amino)propyl)-5,11-dioxo-6,11-dihydro-5H-indeno[1,2-c]isoquinolin-3-yl)amino]-4-oxobutanoate] were > 111 µM and 0.
The corresponding values for `COC(=O)CCCC(=O)Nc1ccc2c3c(n(CCCNC(=O)OC(C)(C)C)c(=O)c2c1)-c1ccccc1C3=O` [Compound 20 of (B), Methyl 5-[(6-(3-((tert-Butoxycarbonyl)amino)propyl)-5,11-dioxo-6,11-dihydro-5H-indeno[1,2-c]isoquinolin-3-yl)amino]-5-oxopentanoate] are > 111 µM and 0.
In the case of `COC(=O)CCC(=O)Nc1ccc2c3c(n(CCCN)c(=O)c2c1)-c1ccccc1C3=O` [Compound 24 of (B), Methyl 4-[(6-(3-Aminopropyl)-5,11-dioxo-6,11-dihydro-5H-indeno[1,2-c]isoquinolin-3-yl)amino]-4-oxobutanoate], at human recombinant Top1, the “Top1 … to Top1 inhibition” value is recorded as “(+)”.
Consider `CC(C)(C)OC(=O)NCCCn1c2c(c3ccc(NC(=O)CCC(=O)O)cc3c1=O)C(=O)c1ccccc1-2` [Compound 29 of (B), 4-[(6-(3-((tert-Butoxycarbonyl)amino)propyl)-5,11-dioxo-6,11-dihydro-5H-indeno[1,2-c]isoquinolin-3-yl)amino]-4-oxobutanoic Acid], for which the IC50 on recombinant human Tdp1 fell in the range of 37 to 111 µM. Besides, at human recombinant Top1, the “Top1 … to Top1 inhibition” value is “(+)”.
For the compound `Cc1ccc(S(=O)(=O)OCCCCCCCn2c3c(c4ccccc4c2=O)C(=O)c2ccccc2-3)cc1` [Compound 29, 7-(5,11-Dioxo-5H-indeno[1,2-c]isoquinolin-6(11H)-yl)heptyl-4-methyl-benzenesulfonate], the “Tdp1 inhibitory activity (in words)” value at recombinant human Tdp1 is reported as “weakly active”.
Consider `CC(C)(C)OC(=O)NCCCn1c2c(c3ccc(NC(=O)CCCC(=O)O)cc3c1=O)C(=O)c1ccccc1-2` [Compound 30 of (B), 5-[(6-(3-((tert-Butoxycarbonyl)amino)propyl)-5,11-dioxo-6,11-dihydro-5H-indeno[1,2-c]isoquinolin-3-yl)amino]-5-oxopentanoic Acid], for which, on recombinant human Tdp1, the IC50 is > 111 µM. Further, the “Top1 … to Top1 inhibition” value at human recombinant Top1 is 0.
Turning to `O=C1c2ccccc2-c2c1c1ccccc1c(=O)n2CCCl` [Compound 30, 6-(2-Chloroethyl)-5H-indeno[1,2-c]isoquinoline-5,11(6H)-dione], the “Tdp1 inhibitory activity (in words)” value on recombinant human Tdp1 was “inactive”.
As to `CC(C)(C)OC(=O)NCCCn1c2c(c3ccc(NC(=O)CCCCC(=O)O)cc3c1=O)C(=O)c1ccccc1-2` [Compound 31 of (B), 6-[(6-(3-((tert-Butoxycarbonyl)amino)propyl)-5,11-dioxo-6,11-dihydro-5H-indeno[1,2-c]isoquinolin-3-yl)amino]-6-oxohexanoic Acid], on human recombinant Top1, the “Top1 … to Top1 inhibition” value was “(+)”.
On the same count and under the same terms, under `Cl.NCCCn1c2c(c3ccc(NC(=O)C(=O)O)cc3c1=O)C(=O)c1ccccc1-2` [Compound 32 of (B), 2-[(6-(3-Aminopropyl)-5,11-dioxo-6,11-dihydro-5H-indeno[1,2-c]isoquinolin-3-yl)amino]-2-oxoacetic Acid Hydrochloride] stands “+”.
Still for that read-out and setting: under `Cl.NCCCn1c2c(c3ccc(NC(=O)CC(=O)O)cc3c1=O)C(=O)c1ccccc1-2` [Compound 33 of (B), 3-[(6-(3-Aminopropyl)-5,11-dioxo-6,11-dihydro-5H-indeno[1,2-c]isoquinolin-3-yl)amino]-3-oxopropanoic Acid Hydrochloride] stands “+”.
On the same count and under the same terms, under `Cl.NCCCn1c2c(c3ccc(NC(=O)CCC(=O)O)cc3c1=O)C(=O)c1ccccc1-2` [Compound 34 of (B), 4-[(6-(3-Aminopropyl)-5,11-dioxo-6,11-dihydro-5H-indeno[1,2-c]isoquinolin-3-yl)amino]-4-oxobutanoic Acid Hydrochloride] stands “+”; under `Cl.NCCCn1c2c(c3ccc(NC(=O)CCCC(=O)O)cc3c1=O)C(=O)c1ccccc1-2` [Compound 35 of (B), 5-[(6-(3-Aminopropyl)-5,11-dioxo-6,11-dihydro-5H-indeno[1,2-c]isoquinolin-3-yl)amino]-5-oxopentanoic Acid Hydrochloride], 0; under `Cl.NCCCn1c2c(c3ccc(NC(=O)CCCCC(=O)O)cc3c1=O)C(=O)c1ccccc1-2` [Compound 36 of (B), 6-[(6-(3-Aminopropyl)-5,11-dioxo-6,11-dihydro-5H-indeno[1,2-c]isoquinolin-3-yl)amino]-6-oxohexanoic Acid Hydrochloride], “+”.
For `CCOC(=O)CNc1ccc2c3c(n(C)c(=O)c2c1)-c1ccccc1C3=O` [Compound 38 of (B), Ethyl 2-[(6-Methyl-5,11-dioxo-6,11-dihydro-5H-indeno[1,2-c]isoquinolin-3-yl)amino]acetate], the “Tdp1 inhibitory activity (in words)” value at recombinant human Tdp1 (listed as 38) is on record as “inactivity”. In addition, the “Top1 … to Top1 inhibition” value on human recombinant Top1 is reported as 0.
As for `Cn1c2c(c3ccc(NCC(=O)O)cc3c1=O)C(=O)c1ccccc1-2` [Compound 41 of (B), 2-[(6-Methyl-5,11-dioxo-6,11-dihydro-5H-indeno[1,2-c]isoquinolin-3-yl)-amino]acetic Acid], the “Tdp1 inhibitory activity (in words)” value on recombinant human Tdp1 (listed as 41) is “inactivity”. In addition, at human recombinant Top1, the “Top1 … to Top1 inhibition” value is given as 0.
With `CC(C)(C)OC(=O)NCCCn1c2c(c3ccc(NCC(=O)O)cc3c1=O)C(=O)c1ccccc1-2` [Compound 42 of (B), 2-((6-(3-((tert-Butoxycarbonyl)amino)propyl)-5,11-dioxo-6,11-dihydro-5H-indeno[1,2-c]isoquinolin-3-yl)amino)acetic Acid], on recombinant human Tdp1, the “Tdp1 inhibitory activity (in words)” value was “inactivity”. On human recombinant Top1, the “Top1 … to Top1 inhibition” value worked out at 0.
For `COc1ccc2c(c1)-c1c(c3ccc([N+](=O)[O-])cc3c(=O)n1CCCBr)C2=O` [Compound 49 of (B), 6-(3-Bromopropyl)-5,6-dihydro-8-methoxy-3-nitro-5,11-dioxo-11H-indeno[1,2-c]isoquinoline], at recombinant human Tdp1, the “Tdp1 inhibitory activity (in words)” value was “very weak or inactive”. Also, the “Top1 … to Top1 inhibition” value on human recombinant Top1 is given as “+++”.
`COc1ccc2c(c1)-c1c(c3ccc([N+](=O)[O-])cc3c(=O)n1CCCN=[N+]=[N-])C2=O` [Compound 50 of (B), 6-(3-Azidopropyl)-5,6-dihydro-8-methoxy-3-nitro-5,11-dioxo-11H-indeno[1,2-c]isoquinoline]: at recombinant human Tdp1, the “Tdp1 inhibitory activity (in words)” value was “very weak or inactive”. Moreover, at human recombinant Top1, the “Top1 … to Top1 inhibition” value is on record as “+”.
Taken in the same sequence, the figures for `COc1ccc2c(c1)-c1c(c3ccc([N+](=O)[O-])cc3c(=O)n1CCCN1CCOCC1)C2=O` [Compound 53 of (B), 8-Methoxy-6-(3-morpholinopropyl)-3-nitro-5H-indeno[1,2-c]isoquinoline-5,11(6H)-dione] were “very weak or inactive” and “++”.
On to `N#Cc1ccc2c3c(n(CCCn4ccnc4)c(=O)c2c1)-c1ccccc1C3=O` [Compound 72], for which, at recombinant human Tdp1, the IC50 is > 111 µM. On human recombinant Top1, the “Top1 … to Top1 inhibition” value is given as “++”.
Taken in the same sequence, the figures for `N#Cc1ccc2c3c(n(CCCN4CCOCC4)c(=O)c2c1)-c1ccccc1C3=O` [Compound 73] were > 111 µM and “++”.
For the compound `CS(=O)(=O)NCCCCCCCn1c2c(c3ccccc3c1=O)C(=O)c1ccccc1-2` [Compound 85], on human recombinant Top1, the “Top1 inhibition (in words)” value is on record as “active” and the “Top1 … to Top1 inhibition” value is listed as “+++”. Also, at human recombinant Top1 (high concentration of 100 μM), the “suppression of Top1-mediated DNA cleavage at high drug concentration” value is “complete suppression”.

Values taken from US9402842B2, “Synthesis and use of dual tyrosyl-DNA phosphodiesterase I (Tdp1)—topoisomerase I (Top1) inhibitors” (Purdue Research Foundation, priority 2012, dated 2016).
